Legend:
[1] = system: male rats with the focal forebrain ischemia; assay: limb-placing test after focal forebrain ischemia (middle cerebral artery occlusion 90 min); format: in vivo, rat; settings: for difference in limb-placing test between JTP-4819 and control groups: ischemic rats vs vehicle control
Protocol: The effects of JTP-4819 on the recovery in the use of limbs assessed by the limb placing task in male rats with the focal forebrain ischemia.
The experiment was carried out on male Spraque-Dawley rats (about 200 g), bred in B&K, Sweden. The rats were allowed to acclimatized for one week before the start of teaching of behavioural testing and subsequent operation (Table 1). During acclimatization period, the rats were housed in solid bottom Macrolon type III cages with stainless steel mesh lids (at maximum five rats in each cage). The rats had free access to standard certified pelleted food (RM1 Maintenance Expanded SQC; Special Diet Services, Essex, UK) and water. After operation, the rats were housed singly in a Macrolon cage. Some food pellets were put into a cage in order to enable to their feeding. On the second post-operative day and thereafter, the rats were housed (maximum 10 rats in one cage) in the enriched environment (Enriched rat cage system, 03-RS-R, Scanbur A/S, Lellinge, Denmark) where the floor area of one cage was 4250 cm^2. […] Tap water and pelleted food were freely available.
Anesthesia was initiated with 4-5% halothane (30% oxygen, 65% nitrous oxide) and maintained throughout the operation with 0.5-1.5% halothane delivered via a nose cone. Body temperature was maintained at 37.0±0.5° C. using a thermoregulatory heating unit with homeothermic blanket (HB 101/2 RS, Letica Scientific Instruments). Heparin (40 IU, i.v.) was given just before the operation to prevent possible complications caused by blood coagulation. The right common carotid artery was exposed through a midline ventral cervical incision, and carefully separated from the adjacent sympathetic nerves under a stereomicroscope. The common carotid artery and internal carotid artery were then clamped with microvascular clips. The external carotid artery was ligated distally with a nylon suture and the artery was cut for induction of suture. A heparinized nylon suture (Ø0.28 mm, rounded tip) was introduced into the stump of the external carotid artery, the internal carotid artery clip was removed, and the suture was advanced into the internal carotid artery until it passed beyond the origin of the middle cerebral artery. After occlusion for 90 min, the suture was removed to allow reperfusion in the middle cerebral artery territory. The stump of the external carotid artery was electrocoagulated and the common carotid artery clip was removed. The cervical incision was closed with silk sutures after the application of 2% lidocain gel (Xylocaln® 2%, Astra Finland). In sham-operated rats, the right common carotid artery was exposed and the external carotid artery was electrocoagulated without introducing the filament into the internal carotid artery. Animals were given 0.9% NaCl (i.p.) during the first-post-operative days (days 0 and 1). They were housed singly in a Macrolon cage.
JTP-4819 was dissolved in sterile saline. The drug was injected 1 ml/kg intraperitoneally (i.p.). […] On the testing day 2, the drug was injected after the rats were tested in a limb placing test and assigned to groups. On days 3-14, the rats were treated even if they were not tested in a limb placing test Table 1). In those days (6, 8, 10, 12, 13), the rats were injected in the afternoon, about 24 hours after the preceding injection. […]
On the second day after operation, behavioral deficits of rats were assessed by using a limb-placing test (De Ryck et al., 1989). […]

[2] = system: experimental models of senile dementia; settings: Toide et al. 1997; cited from earlier work

O=C(CO)[C@@H]1CCCN1C(=O)[C@@H]1CCCN1C(=O)NCc1ccccc1 [JTP-4819]
difference in limb-placing test between JTP-4819 and control groups ([1]; 1 μmol/kg i.p. daily, from day 5 to day 17 after ischemia): significant difference (p<0.05) | difference in limb-placing test between JTP-4819 and control groups ([1]; 9 μmol/kg i.p. daily, on day 3 and 9): significant difference (p<0.05) | recovery in limb-placing score as compared to vehicle treated rats (FIG. 1) ([1]; 0.9 or 9.0 μmol/kg intraperitoneally, especially the lower dose, day 5-17): augmented recovery | recovery in the use of limbs ([1]; daily systemic administration started after unilateral focal forebrain ischemia, rats): enhanced the recovery in the use of limbs | limb-placing test effect after the discontinuation of drug administration ([1]; lower dose of JTP-4819 (1 μmol/kg i.p.), after treatment days 2-14): amelioration effect also was seen | cognition effects [2]: cognition improving effects

From patent US20080269313A1, “Prolyl Oligopeptidase Inhibitors Ameliorating Recovery From Brain Trauma” (ORION CORPORATION, priority 2003, published 2008)
